Consider two molecules from patent US8283521B2, “Transcription factor gene induced by water deficit conditions and abscisic acid from Helianthus annuus, promoter and transgenic plants” (Bioceres S.A., priority 2003, dated 2012).

Assay [1] concerns Hahb-4. Put plainly: Hahb-4 expression in treated sunflower seedlings by RNAse protection. The format is in vivo, Helianthus annuus. From the text:
We have analyzed the expression of Hahb-4 under different environmental conditions (i.e. water, osmotic, salt, cold, heat, and oxidative stress) by RNAse protection, which is more sensitive than the Northern technique (FIG. 2).
As many responses to water stress are mediated by ABA, we have also analyzed the effect of this hormone on the expression.
Helianthus annuus L. (sunflower cv. contiflor 15, from Zeneca, Balcarce, Argentina, or cv. Sunweed, from Rhône-Poulenc, Lyon, France) seeds were surface sterilized and grown on filter paper inside Petri dishes for a period of 4 d. Seedlings were then transferred to plastic supports containing Hoagland's medium and grown until they had six leaves (approximately 3 weeks). Water stress was imposed either by transferring 4-day-old-seedlings to Petri dishes with dry filter paper or by removing plants from the hydroponic culture.
For RNAse protection analysis, total RNA (15 μg) prepared as described (Almoguera C., et. al.; Plant molecular Biology 19: 781-792, 1992) was hybridized to a specific Hahb-4 riboprobe synthesized by in vitro transcription using T3 RNA polymerase and [^32P]CTP following the instructions of the manufacturer (Boehringer Mannheim, Mannheim, Germany). The template consisted of an insert corresponding to the coding region between +81 and +429 (FIG. 1 and SEQ ID NO 1) cloned into the SpeI/BamHI sites of pBlue-script SK^−. The BamHI site, not present in the cDNA, derives from amplification with oligonucleotide H41 as described above. Restriction digestion of this template DNA with EcoRI allows transcription of a 411-nucleotide RNA probe that contains 63 nucleotides from the vector (from the T3 promoter to the SpeI site in the polylinker, and from the BamHI to the EcoRI sites). Conditions for riboprobe preparation, hybridization, digestion with RNAse A, and subsequent electrophoretic analysis of protected RNA fragments were as previously described (Coca M: A: et. al.; Plant Molecular Biology 31: 863-876, 1996, herein incorporated as reference).

A further assay concerns Arabidopsis thaliana. Nature of the assay: Germination in the presence of mannitol or NaCl. The format is in vivo. The note with it: 50, 200, 300 mM mannitol. How it is done: First, the germination process, under conditions imitating the lack of water, such as presence of mannitol, and other conditions generating salt stress, was analyzed. FIGS. 11, 12 and 13 show the germination times of plants transformed according to the invention as compared to control ones. […] This effect is more remarked at higher concentrations of the carbohydrate.
When the germination tests were carried out in the presence of different concentrations of NaCl the obtained results were similar as in the case of mannitol.
The seeds from Arabidopsis thaliana were sterilized by washing with ethanol 70% (v/v) (1 min), chlorine 5%-SDS 1% (15 min) and sterile distilled water (3 times). Then the seeds were suspended in 8 ml of agar 0.1% and sowed in 150 mm Petri plates containing MS medium, with the addition of Gamborg's vitamins. The plates were maintained at 4° C. during two days and then placed into a culture chamber with controlled light and temperature (16 hours light at 24° C. and 8 hours darkness at 21° C.). The required illumination conditions (150-200 μE/m 2) were artificially obtained by keeping the plants at a distance of 25 cm from six fluorescent tubes, intercalating white light and Grolux tubes (from Sylvania) adjacently located.

In assay [2] the test system is Hahb-4. Nature of the assay: Time dependence of the response of Hahb-4 to ABA by Northern analysis. The format is in vivo, Helianthus annuus. The note with it: 100 μM ABA. How it is done:
Total RNA (20 μg) was isolated from seedlings that were either untreated, or treated with 100 μM ABA for different times as indicated in each lane. In the lower panel, the same filter was hybridized with an rRNA probe as a control for RNA loading and transfer.
The high level of induction observed under water stress conditions allowed us to analyze the time-dependent increase in transcript levels by Northern experiments. […] After this time, no further increments in Hahb-4 transcript levels were observed. Re-hydration of the seedlings lowered Hahb-4 transcript levels more slowly, with only about a 50% decrease after 2 h (FIG. 3, lanes 4 and 5). The effect of ABA treatment was also time dependent. […] The high Hahb-4 transcript levels of the invention are reverted after the re-hydration of the sunflower plants, thus indicating again that said gene participates in the response to the water stress.
Total RNA (20 μg) was denatured with formamide and formaldehyde, separated in a 1.5% (w/v) agarose/6% formaldehyde gel, and blotted onto nylon membranes (Hybond N; Amersham-Pharmacia, Buckinghamshire, UK) essentially as described by Sambrook, Fritsch & Maniatis (1989).
Hybridization was performed overnight at 65° C. in 6×SSC (1×SSC is 0.15 M NaCl, 0.015 M Na3-citrate, pH 7.0), 0.1% (w/v) polyvinylpirrolidone, 0.1% (w/v) bovine serum albumin, 0.1% (w/v) Ficoll, 0.5% (w/v) sodium dodecyl sulphate (SDS). […] The filters were autoradiographed using Bio-Max films and transcreen (Eastman Kodak, Rochester, N.Y., USA) overnight. To check the amount of total RNA loaded in each lane, filters were then re-probed with a 25S rRNA from Vicia faba under similar conditions as those described above, except that hybridization was performed at 62° C.

Assay [3] concerns 5′-CAAT(A/T)ATTG-3′ DNA sequence. Put plainly: Electrophoretic mobility shift assay with nuclear extracts of treated seedlings. The format is binding, Helianthus annuus. Particulars: nuclear extracts from ABA-treated 4-day-old seedlings. As for the experimental part:
The presence of functional DNA binding proteins in sunflower nuclei was analyzed by electrophoretic mobility shift assays using a synthetic double-stranded oligonucleotide comprising the sequence 5′-CAAT(A/T)ATTG-3′ (SEQ ID NO:23) bound in vitro by Hahb-4 expressed in bacteria. […] On the contrary, only the slower-migrating complex increased when plants were subjected to water stress. Formation of both complexes was almost completely abolished by an excess of the same unlabelled DNA, but not by an equivalent amount of a similar DNA containing the sequence 5′-CACT(A/T)AGTG-3′ (SEQ ID NO:31) (changed positions underlined) not bound by Hahb-4 (FIG. 6).
Sunflower nuclei and nuclear extracts were prepared from control, water-stressed, or ABA-treated seedlings (4-days-old) according to the technique described in Maliga et al. (Methods in Plant Molecular Biology. A Laboratory Course Manual, pages 233-260. Cold Spring Harbor Laboratory Press, Cold Spring Harbor, N.Y., USA, 1995, herein incorporated by reference). Protein patterns were analyzed by SDS-polyacryla-mide gel electrophoresis (PAGE) and total protein concentration was measured as described Sedmak J. et. al., Analytical Biochemistry 79: 544-552, 1977. […]
(A gel shift assay detects complexes by their altered migration in electrophoresis.)

Take `OC[C@@H](O)[C@@H](O)[C@H](O)[C@H](O)CO` [Mannitol, mannitol]: the Hahb-4 expression result in the assay on Hahb-4 [1] (0.5 M mannitol during 4 h, 4-day-old seedlings) is “induced Hahb-4 expression, although at lower levels”. The “effect of mannitol on germination” value in the assay with Arabidopsis thaliana is “delays the germination”.
For `CC1=CC(=O)CC(C)(C)[C@@]1(O)/C=C/C(C)=C\C(=O)O` [ABA, abscisic acid], the Hahb-4 transcript levels result with Hahb-4 [1] (10 μM ABA) was “smaller, but significant increase in transcript levels”. Moreover, in the assay with Hahb-4 [1] (100 μM ABA, 24 h, irrigated 4-day-old seedlings), the Hahb-4 expression result is recorded as “induction was observed”. The “Hahb-4 transcript levels after 24 h of treatment” value with Hahb-4 [2] (24 h) is on record as “still significantly high”. For the same molecule, in the assay on Hahb-4 [2] (seedlings), the “time of maximum response of Hahb-4 to ABA” value lay within 3 to 6 h and the “time until response of Hahb-4 to ABA is detectable” value was ≤ 1 h. In addition, in assay [3], the “amount of both protein complexes binding the Hahb-4 target sequence” value is listed as “significantly increased”.
